The target in the test is T1, OSBPL11 (OSBPL11-myc-His) (Homo sapiens, UniProt Q9BXB4).
T1 construct: full length, C-terminal myc-His tag (pcDNA3.1(+)myc/his C), transiently expressed in 293T cells; 100,000 g supernatant (S100) of lysate, not purified
T1 sequence (Q9BXB4 1-747): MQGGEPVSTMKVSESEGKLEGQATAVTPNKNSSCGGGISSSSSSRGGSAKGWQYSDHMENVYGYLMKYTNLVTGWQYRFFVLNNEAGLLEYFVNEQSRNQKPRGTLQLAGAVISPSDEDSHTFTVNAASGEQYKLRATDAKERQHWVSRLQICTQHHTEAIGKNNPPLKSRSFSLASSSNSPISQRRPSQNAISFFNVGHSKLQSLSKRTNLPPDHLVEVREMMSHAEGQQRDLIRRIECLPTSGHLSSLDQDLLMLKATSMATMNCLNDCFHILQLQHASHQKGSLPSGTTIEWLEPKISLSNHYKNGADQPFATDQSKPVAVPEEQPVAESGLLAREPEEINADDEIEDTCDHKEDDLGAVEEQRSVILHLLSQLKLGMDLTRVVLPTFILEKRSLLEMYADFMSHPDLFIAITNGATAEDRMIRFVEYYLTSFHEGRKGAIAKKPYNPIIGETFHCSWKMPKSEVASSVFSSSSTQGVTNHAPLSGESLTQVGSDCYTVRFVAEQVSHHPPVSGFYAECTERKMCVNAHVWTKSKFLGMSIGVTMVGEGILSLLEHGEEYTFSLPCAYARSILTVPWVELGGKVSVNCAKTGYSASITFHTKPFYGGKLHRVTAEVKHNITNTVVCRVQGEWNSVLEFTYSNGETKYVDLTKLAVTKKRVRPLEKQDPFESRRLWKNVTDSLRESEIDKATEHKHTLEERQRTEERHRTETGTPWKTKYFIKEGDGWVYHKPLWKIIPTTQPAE
As to the kind of experiment: [3H]-25-hydroxycholesterol competition binding, charcoal/dextran, S100 lysate. The format is biochemical.

The source of these data is doi:10.1101/2025.05.27.25328359, “OSBPL11 is an African-specific locus associated with 25-hydroxyvitamin D concentrations and cardiometabolic health” (medRxiv, 2025).

Structures are written as SMILES.

For the compound `C[C@H](CCCC(C)(C)O)[C@H]1CC[C@H]2[C@@H]3CC=C4C[C@@H](O)CC[C@]4(C)[C@H]3CC[C@]12C` [25-hydroxycholesterol], the Ki amounted to 32 nM.

As a reminder, the Ki is a dissociation constant, usually derived from enzyme kinetics or from competition with a known ligand.
